Source: patent US20100003246A1, “Novel heterocyclic compounds and uses therof” (priority 2008, published 2010)

Tests used:
[1] = tested on: Capan1 cells; experiment: Cell Titer-Glo cell viability assay, Capan1; type: cell-based; settings: Homo sapiens, CAPAN-1, 120 h; Pancreatic cell line Capan1; 5 days compound incubation; 2000 cells/well
Method: (§1) The Cell Titer-Glo® assay (Promega) was used to measure cell viability. Cells were plated into 96-well black walled tissue culture plates in complete growth media. The plates were then incubated under standard growth conditions of 37° C. and 5% CO2 until the cells had attached to the plates (3-6 hours), then compounds were added to the cells. Compounds were serially diluted in DMSO using 3-fold dilutions and then diluted in complete media before being added to the cells (final DMSO concentration on cells was 0.1-0.2%).
(§2) After compound incubation, the cell plates were equilibrated to room temperature, culture media was removed, and 200 uL of Cell Titer-Glo® reagent mix was added to each well (1:1 mixture of Cell Titer-Glo® reagent and complete growth media, equilibrated to room temperature). The plates were shaken for 5-10 minutes, then sealed and luminescence was measured (using Trilux plate reader, Perkin Elmer).
(§3) Analysis of data was done by subtracting the background luminescence value from each data point, then determining the percent inhibition of total growth (as determined by the values for DMSO-treated wells).
(§4) To determine the EC50 for each compound, the data were fit using the Levenburg Marquardt algorithm, represented in the XLfit software as y=A+((B−A)/(1+((C/x)̂D))), the four parameter dose response model 205, where A is the minimum Y value, B is the maximum Y value, C is the Log IC50 and D is the slope.

[2] = biological target: T1, b-Raf(V600E) (Homo sapiens, UniProt P15056, V600E); experiment: Raf/Mek Amplified Luminescence Proximity Homogeneous Assay (Alpha Screen), b-Raf(V600E); type: biochemical; settings: mutant b-Raf(V600E), read-out: mut-b-RAF (IC50 in uM)
T1 construct: made in house
Procedure, shortened: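 IC50 derived by non-linear regression from AlphaScreen luminescence of phospho-MEK (anti-p-MEK antibody). Reaction: ~4 pM b-Raf(V600E), ~10 nM kinase-dead biotinylated Mek, 60 min compound pre-incubation, then 3 h with ATP at room temperature in pH 7.5 Tris/MgCl2/DTT buffer, quenched with EDTA.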

[3] = tested on: PC3MM cells; experiment: Cell Titer-Glo cell viability assay, PC3MM; type: cell-based; settings: 120 h; Prostate cell line PC3MM; 5 days compound incubation; 1500 cells/well
Method: as §1, §2
(§5) Analysis of data was done by subtracting the background luminescence value from each data point, then determining the percent inhibition of total growth (as determined by the values for DMSO-treated wells). […]

[4] = tested on: SU86.86 cells; experiment: Cell Titer-Glo cell viability assay, SU86.86; type: cell-based; settings: Homo sapiens, SU.86.86, 120 h; Pancreatic cell line SU86.86; 5 days compound incubation; 1000 cells/well
Method: as §1, §2, §3, §4

[5] = tested on: K1 cells; experiment: Cell Titer-Glo cell viability assay, K1; type: cell-based; settings: 96 h; Papillary thyroid cell line K1; 4 days compound incubation; 1500 cells/well
Method: as §1, §2, §5

[6] = tested on: G361 cells; experiment: Cell Titer-Glo cell viability assay, G361; type: cell-based; settings: Homo sapiens, G-361, 96 h; Melanoma cell line G361; 4 days compound incubation; 1000 cells/well
Method: as §1, §2, §3, §4

[7] = tested on: A375 cells; experiment: Cell Titer-Glo cell viability assay, A375; type: cell-based; settings: Homo sapiens, A-375, 72 h; Melanoma cell line A375; 3 days compound incubation; 1000 cells/well
Method: as §1, §2, §3, §4

[8] = tested on: Malme3M cells; experiment: Cell Titer-Glo cell viability assay, Malme3M; type: cell-based; settings: Homo sapiens, Malme-3M, 120 h; Melanoma cell line Malme3M; 5 days compound incubation; 1000 cells/well
Method: as §1, §2, §3, §4

T1 sequence (P15056 whole entry V600E): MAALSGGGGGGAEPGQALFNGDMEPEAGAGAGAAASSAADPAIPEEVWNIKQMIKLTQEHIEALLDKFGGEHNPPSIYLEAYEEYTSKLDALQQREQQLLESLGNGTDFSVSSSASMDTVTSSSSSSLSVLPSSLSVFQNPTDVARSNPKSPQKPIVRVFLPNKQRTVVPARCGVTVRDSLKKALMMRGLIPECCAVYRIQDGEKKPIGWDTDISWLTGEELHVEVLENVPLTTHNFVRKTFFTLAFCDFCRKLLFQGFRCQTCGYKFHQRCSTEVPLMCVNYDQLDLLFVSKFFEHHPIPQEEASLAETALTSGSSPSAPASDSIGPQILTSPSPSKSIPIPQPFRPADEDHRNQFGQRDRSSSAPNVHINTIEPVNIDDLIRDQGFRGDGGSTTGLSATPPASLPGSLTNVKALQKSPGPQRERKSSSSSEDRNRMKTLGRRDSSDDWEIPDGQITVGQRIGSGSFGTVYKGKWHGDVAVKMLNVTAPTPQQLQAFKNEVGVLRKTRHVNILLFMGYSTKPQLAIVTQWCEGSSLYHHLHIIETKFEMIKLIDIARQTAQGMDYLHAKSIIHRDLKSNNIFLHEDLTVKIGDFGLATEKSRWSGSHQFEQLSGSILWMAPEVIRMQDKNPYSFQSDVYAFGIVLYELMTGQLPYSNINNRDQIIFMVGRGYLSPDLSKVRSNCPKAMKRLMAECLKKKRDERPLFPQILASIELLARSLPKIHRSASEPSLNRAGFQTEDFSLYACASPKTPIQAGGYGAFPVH

Row | IC50 [2] [µM] | SMILES | EC50 [1] [nM] | EC50 [4] [nM] | other results
1 | 0.0001 | COCC(=O)N[C@@H](C)CNc1nccc(-c2[nH]c(-c3ccc(F)cc3)nc2-c2cnc(N)c(OC)c2)n1 [Compound 163, (S)-N-(1-(4-(4-(6-amino-5-methoxypyridin-3-yl)-2-(4-fluorophenyl)-1H-imidazol-5-yl)pyrimidin-2-ylamino)propan-2-yl)-2-methoxyacetamide] | 535 | 28 | EC50 [3]: 83 nM
2 | – | COCC(=O)N[C@@H](C)CNc1nccc(-c2[nH]c(-c3ccc(F)cc3)nc2-c2cnc(N)c(OC)n2)n1 [Compound 5, (S)-N-(1-(4-(4-(5-amino-6-methoxypyrazin-2-yl)-2-(4-fluorophenyl)-1H-imidazol-5-yl)pyrimidin-2-ylamino)propan-2-yl)-2-methoxyacetamide] | – | 354 | EC50 [5]: 892 nM
3 | 0.0006 | COc1cc(-c2nc(-c3ccc(F)cc3)[nH]c2-c2ccncc2)cnc1N [Compound 66, 5-(2-(4-fluorophenyl)-5-(pyridin-4-yl)-1H-imidazol-4-yl)-3-methoxypyridin-2-amine] | – | – | EC50 [6]: 1020 nM; EC50 [7]: 623 nM; EC50 [8]: 816 nM
4 | 0.001 | COc1cc(-c2[nH]c(-c3ccc(F)cc3F)nc2-c2ccncc2)cnc1N [Compound 106, 5-(2-(2,4-difluorophenyl)-4-(pyridin-4-yl)-1H-imidazol-5-yl)-3-methoxypyridin-2-amine] | 674 | 118 | –
5 | 0.0003 | COCC(=O)N[C@@H](C)CNc1nccc(-c2[nH]c(-c3ccc(C(F)(F)F)cc3)nc2-c2cnc(N)c(OC)c2)n1 [Compound 198, (S)-N-(1-(4-(4-(6-amino-5-methoxypyridin-3-yl)-2-(4-(trifluoromethyl)phenyl)-1H-imidazol-5-yl)pyrimidin-2-ylamino)propan-2-yl)-2-methoxyacetamide] | – | – | EC50 [5]: 787 nM
6 | 0.0001 | COCC(=O)NCCNc1nccc(-c2nc(-c3ccc(F)cc3)[nH]c2-c2cnc(N)c(OC)c2)n1 [Compound 81, N-(2-(4-(5-(6-amino-5-methoxypyridin-3-yl)-2-(4-fluorophenyl)-1H-imidazol-4-yl)pyrimidin-2-ylamino)ethyl)-2-methoxyacetamide] | 319 | – | EC50 [6]: 305 nM; EC50 [7]: 547 nM; EC50 [8]: 194 nM
7 | – | COc1cc(-c2[nH]c(-c3ccccc3)nc2-c2ccncc2)cnc1N [Compound 1, 3-methoxy-5-(2-phenyl-4-(pyridin-4-yl)-1H-imidazol-5-yl)pyridin-2-amine] | 570 | 116 | EC50 [6]: 70 nM; EC50 [7]: 376 nM; EC50 [8]: 429 nM
8 | 0.0002 | COCC(=O)NCCNc1nccc(-c2[nH]c(-c3ccc(C(F)(F)F)cc3)nc2-c2cnc(N)c(OC)c2)n1 [Compound 85, N-(2-(4-(4-(6-amino-5-methoxypyridin-3-yl)-2-(4-(trifluoromethyl)phenyl)-1H-imidazol-5-yl)pyrimidin-2-ylamino)ethyl)-2-methoxyacetamide] | 163 | 111 | –
9 | – | COc1cc(Nc2nccc(-c3[nH]c(C(C)(C)C)nc3-c3cnc(N)c(OC)n3)n2)ccn1 [Compound 9, 4-(4-(5-amino-6-methoxypyrazin-2-yl)-2-tert-butyl-1H-imidazol-5-yl)-N-(2-methoxypyridin-4-yl)pyrimidin-2-amine] | – | – | EC50 [3]: 250 nM
10 | 0.0001 | COc1cc(-c2nc(C(C)(C)C)[nH]c2-c2ccnc(NCC(F)(F)F)n2)cnc1N [Compound 213, 4-(4-(6-amino-5-methoxypyridin-3-yl)-2-tert-butyl-1H-imidazol-5-yl)-N-(2,2,2-trifluoroethyl)pyrimidin-2-amine] | – | – | –
11 | 0.0005 | COc1cc(-c2nc(C(C)(C)C)[nH]c2-c2ccnc(NCc3ccc(C(F)(F)F)cc3)n2)cnc1N [Compound 215, 4-(4-(6-amino-5-methoxypyridin-3-yl)-2-tert-butyl-1H-imidazol-5-yl)-N-(4-(trifluoromethyl)benzyl)-pyrimidin-2-amine] | – | – | –
12 | 0.003 | COCC(=O)N[C@@H](C)CNc1nccc(-c2oc(-c3ccc(C(F)(F)F)cc3)nc2-c2cnc(N)c(OC)c2)n1 [Example 14] | – | – | –
13 | 0.0003 | COCC(=O)N[C@@H](C)CNc1nccc(-c2[nH]c(C(C)C)nc2-c2cnc(N)c(OC)c2)n1 [Compound 226, (S)-N-(1-(4-(4-(6-amino-5-methoxypyridin-3-yl)-2-isopropyl-1H-imidazol-5-yl)pyrimidin-2-ylamino)propan-2-yl)-2-methoxyacetamide] | – | – | –
